Source: ChEMBL document CHEMBL1255274, “Microdialysis study of imipenem distribution in the peritoneal fluid of rats with experimental acute pancreatitis” (Antimicrob Agents Chemother, 2008)

What was measured:
Assay type in all cases: ADME, organism-based
Parameters in all cases: dose 30 mg/kg, route intravenous
[1] = Cmax in pancreatitis Sprague-Dawley rat blood at 30 mg/kg, iv after 30 mins
[2] = Cmax in pancreatitis Sprague-Dawley rat peritoneal fluid at 30 mg/kg, iv after 30 mins
[3] = Half life in pancreatitis Sprague-Dawley rat blood at 30 mg/kg, iv after 30 mins
[4] = Tmax in pancreatitis Sprague-Dawley rat blood at 30 mg/kg, iv after 30 mins
[5] = Half life pancreatitis Sprague-Dawley rat peritoneal fluid at 30 mg/kg, iv after 30 mins
[6] = Selectivity ratio of AUC in pancreatitis Sprague-Dawley rat peritoneal fluid to AUC in pancreatitis Sprague-Dawley rat blood at 30 mg/kg, iv after 30 mins; conditions: read-out: Ratio AUC
[7] = Tmax in pancreatitis Sprague-Dawley rat peritoneal fluid at 30 mg/kg, iv after 30 mins
[8] = Clearance in pancreatitis Sprague-Dawley rat blood at 30 mg/kg, iv after 30 mins

- Cmax [1]: 53.9 µg/mL
- Cmax [2]: 51.8 µg/mL
- half-life [3]: 17.3 min
- Tmax [4]: 35 min
- half-life [5]: 17.6 min
- Tmax [7]: 36.7 min
- clearance [8]: 17 mL/min/kg
Compound: C[C@@H](O)[C@H]1C(=O)N2C(C(=O)O)=C(SCCN=CN)C[C@H]12 [IMIPENEM ANHYDROUS]
- Kp at 0.5 h [6]: 1.08
